# Measurements from ChEMBL document CHEMBL1136873, “Application of combinatorial biocatalysis for a unique ring expansion of dihydroxymethylzearalenone” (Bioorg Med Chem Lett, 2009).
# Activity calls are given as the source filed them. The calls are words filed in the database; no cut-off is given here.
# Target: T1, Tyrosine-protein kinase Lck (Homo sapiens, UniProt P06239)
# Experiment: Inhibition of LCK at 10 uM
# Target sequence in this assay (P06239 2-509 limits assumed): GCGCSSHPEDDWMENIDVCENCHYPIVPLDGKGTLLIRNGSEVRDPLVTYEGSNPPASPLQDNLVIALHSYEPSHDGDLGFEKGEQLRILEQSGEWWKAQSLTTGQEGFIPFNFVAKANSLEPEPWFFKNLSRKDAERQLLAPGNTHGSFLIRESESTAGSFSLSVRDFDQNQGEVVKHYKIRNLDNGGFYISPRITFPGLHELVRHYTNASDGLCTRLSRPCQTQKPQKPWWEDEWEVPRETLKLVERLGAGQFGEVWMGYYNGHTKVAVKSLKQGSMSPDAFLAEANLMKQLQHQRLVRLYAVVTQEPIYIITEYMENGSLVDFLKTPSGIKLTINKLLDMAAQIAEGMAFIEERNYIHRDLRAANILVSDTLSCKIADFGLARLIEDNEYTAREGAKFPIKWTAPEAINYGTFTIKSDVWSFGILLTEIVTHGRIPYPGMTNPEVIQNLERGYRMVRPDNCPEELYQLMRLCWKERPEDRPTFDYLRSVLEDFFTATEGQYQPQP
row,SMILES,Activity
1,COc1cc(O)c2c(c1)/C=C/CC(=O)NCCCOCCCNC(=O)CCC[C@H](C)OC2=O,inactive
2,COc1cc(O)c2c(c1)/C=C/CC(=O)OCCCC(c1ccccc1)(C(O)c1ccccc1)CCCOC(=O)CCC[C@H](C)OC2=O (stereo not given in full),inactive
3,COc1cc(O)c2c(c1)/C=C/CC(=O)NCCCN(C)CCCNC(=O)CCC[C@H](C)OC2=O,inactive
4,COc1cc(O)c2c(c1)/C=C/CC(=O)OC/C=C\COC(=O)CCC[C@H](C)OC2=O,inactive
5,COc1cc(O)c2c(c1)/C=C/CC(=O)OCCOCC#CCOCCOC(=O)CCC[C@H](C)OC2=O,inactive
6,COc1cc(O)c2c(c1)/C=C/CC(=O)OCc1cccc(c1)COC(=O)CCC[C@H](C)OC2=O,inactive
7,COc1cc(O)c2c(c1)/C=C/CC(=O)OC/C=C(\C)CC/C=C(\C)COC(=O)CCC[C@H](C)OC2=O,inactive
8,COc1cc(O)c2c(c1)/C=C/CC(=O)OCCCCOC(=O)CCC[C@H](C)OC2=O,inactive
9,COc1cc(O)c2c(c1)/C=C/CC(=O)OCCCC(c1ccccc1)(C(C)O)CCCOC(=O)CCC[C@H](C)OC2=O (stereo not given in full),inactive
10,COc1cc(O)c2c(c1)/C=C/CC(=O)NCCCCNC(=O)CCC[C@H](C)OC2=O,inactive
11,COc1cc(O)c2c(c1)/C=C/CC(=O)OCCCOCCCOC(=O)CCC[C@H](C)OC2=O,inactive
12,COc1cc(O)c2c(c1)/C=C/CC(=O)OCCCCCCCCOC(=O)CCC[C@H](C)OC2=O,inactive
13,COc1cc(O)c2c(c1)/C=C/CC(=O)OCCCCCCOC(=O)CCC[C@H](C)OC2=O,inactive
14,COc1cc(O)c2c(c1)/C=C/CC(=O)OCCOC(=O)CCC[C@H](C)OC2=O,inactive
15,COc1cc(O)c2c(c1)/C=C/CC(=O)NCCCOCCCCOCCCNC(=O)CCC[C@H](C)OC2=O,inactive
16,COc1cc(O)c2c(c1)/C=C/CC(=O)OCCC1(CCCCC1)CCOC(=O)CCC[C@H](C)OC2=O,inactive
17,COc1cc(O)c2c(c1)/C=C/CC(=O)NCCCCCCCNC(=O)CCC[C@H](C)OC2=O,inactive

# Tested on: not listed separately
# Experiment: Inhibition of MAPK
row,SMILES,IC50 [nM]
1,"COc1cc(O)c2c(c1)CCCC(O)[C@H](O)C(=O)/C=C\C[C@H](C)OC2=O (single isomer, unassigned)",4

# Target: T1, Tyrosine-protein kinase Lck
# Target sequence in this assay (P06239 whole entry): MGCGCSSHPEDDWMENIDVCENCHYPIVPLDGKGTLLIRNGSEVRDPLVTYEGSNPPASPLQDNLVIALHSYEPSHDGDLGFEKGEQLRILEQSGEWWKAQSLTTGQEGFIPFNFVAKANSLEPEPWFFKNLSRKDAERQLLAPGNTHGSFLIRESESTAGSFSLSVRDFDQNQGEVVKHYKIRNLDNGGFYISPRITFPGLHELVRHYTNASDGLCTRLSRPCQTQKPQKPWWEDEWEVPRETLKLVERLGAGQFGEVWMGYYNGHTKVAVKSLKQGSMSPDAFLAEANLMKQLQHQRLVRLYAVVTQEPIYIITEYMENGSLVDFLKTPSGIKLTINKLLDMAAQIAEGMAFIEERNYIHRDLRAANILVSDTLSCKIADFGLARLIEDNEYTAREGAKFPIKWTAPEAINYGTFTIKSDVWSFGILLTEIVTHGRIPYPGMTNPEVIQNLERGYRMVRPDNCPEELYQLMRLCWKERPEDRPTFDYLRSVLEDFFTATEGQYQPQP
row,SMILES,IC50 [nM]
1,COc1cc(O)c2c(c1)/C=C/C[C@@H](O)[C@H](O)C(=O)CCC[C@H](C)OC2=O [DIHYDROXYMETHYLZEARALENONE],200
2,"COc1cc(O)c2c(c1)CCCC(O)[C@H](O)C(=O)/C=C\C[C@H](C)OC2=O (single isomer, unassigned)",750
